From US20100063112A1, “POLYMORPH III OF 4-[4-(AMINO)-3-FLUOROPHENOXY]-N-METHYLPYRIDINE-2-CARBOXAMIDE” (BAYER SCHERING PHARMA AKTIENGESELLSCHAFT, priority 2006, published 2010)

Experiment: solubility in water and in organic solvents
Assay type: physicochemical

solubility in organic solvents (organic solvents): high | solubility in water (water): high
Compound: CNC(=O)c1cc(Oc2ccc(NC(=O)Nc3ccc(Cl)c(C(F)(F)F)c3)c(F)c2)ccn1 [polymorph III, 4-[4-({[4-chloro-3-(trifluoromethyl)phenyl]carbamoyl}amino)-3-fluorophenoxy]-N-methylpyridine-2-carboxamide in the polymorph III]
